Experimental data from patent US12091411B2, “IRAK degraders and uses thereof” (Kymera Therapeutics, Inc., priority 2022, dated 2024).
Where two headings read alike, the source gives them in different places.

Target: T1, IRAK4 (Homo sapiens, UniProt Q9NWZ3)
T1 construct: Degradation of IRAK4 in OCI-LY10 was quantitatively measured using Meso Scale Discovery technology; endogenous in cells; host or cells: OCI-LY10
T1 sequence (Q9NWZ3 1-460): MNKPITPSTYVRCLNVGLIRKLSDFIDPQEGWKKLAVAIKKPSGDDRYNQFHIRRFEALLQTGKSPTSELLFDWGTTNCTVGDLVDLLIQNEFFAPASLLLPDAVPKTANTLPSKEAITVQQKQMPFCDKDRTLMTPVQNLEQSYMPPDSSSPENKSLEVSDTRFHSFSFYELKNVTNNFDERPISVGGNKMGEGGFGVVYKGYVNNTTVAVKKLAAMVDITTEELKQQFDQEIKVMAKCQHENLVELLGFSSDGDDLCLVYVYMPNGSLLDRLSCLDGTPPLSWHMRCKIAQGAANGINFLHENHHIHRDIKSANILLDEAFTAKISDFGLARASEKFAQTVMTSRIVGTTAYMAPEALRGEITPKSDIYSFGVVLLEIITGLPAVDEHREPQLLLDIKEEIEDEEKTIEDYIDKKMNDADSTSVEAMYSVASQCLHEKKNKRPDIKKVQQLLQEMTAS
Assay: IRAK4 MSD Degradation in OCI-LY10
Type: cell-based
Settings: OCI-LY10 cells, MSD
Method in brief: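 DC50, from a three-parameter logistic fit and reported as letter bins A (<0.01 μM), B, C, D (>0.2 μM or not tested), reflects IRAK4 loss measured by MSD electrochemiluminescence in OCI-LY10 lysates. Treatment: 8 doses, 1:3 steps, top 1 to 10 μM, 4 to 24 h, 37 °C.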

[1] = 4 hrs incubation, read-out: IRAK4 degradation in OCI-LY10 at 4 hrs: DC50
[2] = 24 hrs incubation, read-out: IRAK4 degradation in OCI-LY10 at 24 hrs: DC50

DC50 [1] [µM]	DC50 [2] [µM]	Compound
> 0.2	> 0.2	Cn1c(=O)n(C2CCC(=O)NC2=O)c2cccc([C@H]3CCN(C[C@H]4CC[C@H](n5cc6cc(NC(=O)c7cccc(C(F)F)n7)c(C(C)(C)O)cc6n5)CC4)C[C@@H]3F)c21 (some centres unmarked) [I-654]
> 0.2	> 0.2	Cn1c(=O)n(C2CCC(=O)NC2=O)c2ccc(C3CCN(C[C@H]4CC[C@H](n5cc6cc(NC(=O)c7cccc(C(F)(F)F)n7)ccc6n5)CC4)CC3(F)F)cc21 (some centres unmarked) [I-465]
> 0.2	> 0.2	Cn1c(=O)n(C2CCC(=O)NC2=O)c2cccc(N3CCC(O[C@H]4CC[C@H](n5cc6cc(NC(=O)c7cccc(C(F)(F)F)n7)ncc6n5)CC4)CC3)c21 (some centres unmarked) [I-791]
> 0.2	< 0.01	Cn1c(=O)n(C2CCC(=O)NC2=O)c2cccc([C@H]3CCN(C[C@H]4CC[C@H](n5cc6cc(NC(=O)c7cccc(C(F)(F)F)n7)ncc6n5)CC4)C[C@@H]3F)c21 (some centres unmarked) [I-717]
> 0.2	> 0.2	COc1ccc2c(c1C1CCN(C[C@H]3CC[C@H](n4cc5cc(NC(=O)c6cccc(C(F)(F)F)n6)ccc5n4)CC3)CC1(F)F)n(C)c(=O)n2C1CCC(=O)NC1=O (some centres unmarked) [I-446]
> 0.2	> 0.2	O=C1CCN(c2cncc3c(C4=CCN(C[C@H]5CC[C@H](n6cc7cc(NC(=O)c8cccc(C(F)(F)F)n8)ccc7n6)CC5)CC4(F)F)cccc23)C(=O)N1 [I-468]
> 0.2	> 0.2	Cn1c(=O)n(C2CCC(=O)NC2=O)c2cccc([C@H]3CCN(C[C@H]4CC[C@H](n5cc6cc(NC(=O)c7cccc(C(F)F)n7)ccc6n5)CC4)C[C@H]3F)c21 (some centres unmarked) [I-631]
> 0.2	> 0.2	CN(C[C@H]1CC[C@H](n2cc(NC(=O)c3cnn4ccc(N5CCCCC5(C)C)nc34)c(C(F)F)n2)CC1)C1CCN(c2cccc3c2n(C)c(=O)n3C2CCC(=O)NC2=O)CC1(F)F (some centres unmarked) [I-518]

The next lines start with the compound.

Compound	DC50 [1] [µM]	DC50 [2] [µM]
Cn1c(=O)n(C2CCC(=O)NC2=O)c2ccnc(N3CCN([C@H]4CCN(C[C@H]5CC[C@H](n6cc(NC(=O)c7cnn8ccc(N9C[C@H]%10C[C@@H]9CO%10)nc78)c(C(F)F)n6)CC5)CC4(F)F)CC3)c21 (some centres unmarked) [I-744]	> 0.2	< 0.01
Cn1c(=O)n(C2CCC(=O)NC2=O)c2cccc(CC[C@H]3CN(Cc4ccc(-n5cc(NC(=O)c6cnn7cccnc67)c(C(F)F)n5)cc4)CCO3)c21 (some centres unmarked) [I-388]	> 0.2	> 0.2
C[C@H]1CN(c2ccn3ncc(C(=O)Nc4cn([C@H]5CC[C@H](CN(C)C6CCN(c7cccc8c7n(C)c(=O)n8C7CCC(=O)NC7=O)CC6(F)F)CC5)nc4C(F)F)c3n2)CCO1 (some centres unmarked) [I-528]	> 0.2	0.01 to 0.1
CN(C[C@H]1CC[C@H](n2cc(NC(=O)c3cnn4ccc(N5C[C@@H]6C[C@H]5CO6)nc34)c(C(F)F)n2)CC1)C1CCN(c2cccc3c2n(C)c(=O)n3C2CCC(=O)NC2=O)CC1(F)F (some centres unmarked) [I-523]	> 0.2	0.01 to 0.1
CO[C@]1(CN2CCN(C[C@H]3CC[C@H](n4cc(NC(=O)c5cnn6ccc(N7C[C@H]8CC7CO8)nc56)c(C(F)F)n4)CC3)CC2)C[C@H](c2cccc3c2n(C)c(=O)n3C2CCC(=O)NC2=O)C1 (some centres unmarked) [I-579]	> 0.2	> 0.2
COc1cc2nn([C@H]3CC[C@H](CN4CCC5(CC4)CCN(c4cccc(C6CCC(=O)NC6=O)c4)CC5)CC3)cc2cc1NC(=O)c1cncc(C#N)c1 (some centres unmarked) [I-91]	> 0.2	0.1 to 0.2
Cn1c(=O)n(C2CCC(=O)NC2=O)c2cccc(C#CC[C@@H]3CN(C[C@H]4CC[C@H](n5cc(NC(=O)c6cnn7ccc(N8C[C@H]9C[C@@H]8CO9)nc67)c(C(F)F)n5)CC4)CCO3)c21 (some centres unmarked) [I-389]	0.01 to 0.1	> 0.2
Cn1c(=O)n(C2CCC(=O)NC2=O)c2cccc(C#CCOC3CCN(C[C@H]4CC[C@H](n5cc(NC(=O)c6cnn7ccc(N8CCS(=O)(=O)CC8)nc67)c(C(F)F)n5)CC4)CC3)c21 (some centres unmarked) [I-304]	> 0.2	< 0.01
Cn1c(=O)n(C2CCC(=O)NC2=O)c2cccc(C#CCN3CCN(C[C@H]4CC[C@H](n5cc(NC(=O)c6cnn7ccc(N8CCCCCC8)nc67)c(C(F)F)n5)CC4)CC3)c21 (some centres unmarked) [I-283]	> 0.2	0.01 to 0.1
Cn1c(=O)n(C2CCC(=O)NC2=O)c2cccc(C3CCN(C4CCN([C@H]5CC[C@H](n6cc(NC(=O)c7cnn8ccc(N9C[C@H]%10C[C@@H]9CO%10)nc78)c(C(F)F)n6)CC5)CC4)CC3)c21 (some centres unmarked) [I-202]	< 0.01	> 0.2
Cn1c(=O)n(C2CCC(=O)NC2=O)c2cccc(C#CCN3CCN(C[C@H]4CC[C@H](n5cc(NC(=O)c6cnn7ccc(N8CCS(=O)(=O)CC8)nc67)c(C(F)F)n5)CC4)CC3)c21 (some centres unmarked) [I-295]	> 0.2	< 0.01
